Data taken from patent US6752929B1, “Methods of separating FTC isomers and derivatives thereof” (Johnson Matthey Pharmaceutical Materials, Inc., priority 1999, dated 2004).

Assay: Solubility of cis-FTC Ester in various solvent systems
Assay type: physicochemical
Conditions: 100% ethyl acetate, 20° C.
Experimental: Therefore, the solubility of the FTC ester in several solvent systems was determined.

Solubility: 3.03%??
SMILES: CCCC(=O)OC[C@@H]1O[C@H](n2cc(F)c(N)nc2=O)CS1 (relative stereo) [cis-FTC Ester, cis-{5-(4-amino-5-fluoro-2-oxo-1(2H)-pyrimidinyl)-1,3-oxathiolan-2-yl}methyl butanoate]
